“And” between values parts separate entries of the source, which are not always exact repeats. Identical values can stand only once.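 All cell lines were grown in 96-well plates and treated with compound for 48 hours. The concentration for 50% growth inhibition is given as GI50. TGI marks complete inhibition of growth.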
Assays:
Experiment in all cases: growth of human tumour cells (NCI), 48 h
HT29 colon = tested on: HT29 colon
OVCAR-8 ovarian = tested on: OVCAR-8 ovarian
SR leukemia = tested on: SR leukemia
BT-549 breast = tested on: BT-549 breast
K-562 leukemia = tested on: K-562 leukemia
SK-MEL-5 melanoma = tested on: SK-MEL-5 melanoma
HOP-92 NSCLC = tested on: HOP-92 NSCLC
SK-OV-3 ovarian = tested on: SK-OV-3 ovarian
OVCAR-5 ovarian = tested on: OVCAR-5 ovarian
NCI-H522 lung = tested on: NCI-H522 lung
MCF7 breast = tested on: MCF7 breast
NCI-H460 lung = tested on: NCI-H460 lung
SN12C renal = tested on: SN12C renal
SNB-75 CNS = tested on: SNB-75 CNS
ACHN renal = tested on: ACHN renal
RXF 393 renal = tested on: RXF 393 renal
M14 melanoma = tested on: M14 melanoma
MALME-3M melanoma = tested on: MALME-3M melanoma
A498 renal = tested on: A498 renal
SK-MEL-2 melanoma = tested on: SK-MEL-2 melanoma
OVCAR-3 ovarian = tested on: OVCAR-3 ovarian
SK-MEL-28 melanoma = tested on: SK-MEL-28 melanoma
SNB-19 CNS = tested on: SNB-19 CNS
UO-31 renal = tested on: UO-31 renal
OVCAR-4 ovarian = tested on: OVCAR-4 ovarian
KM12 colon = tested on: KM12 colon
A549 NSCLC = tested on: A549 NSCLC
SF-539 CNS = tested on: SF-539 CNS
MOLT-4 leukemia = tested on: MOLT-4 leukemia
MDA-MB-231 breast = tested on: MDA-MB-231 breast

## C[C@@]1(C(=O)Nc2ccc(F)nc2)CCCN1c1nc(Nc2cc(C3CC3)[nH]n2)c2cccn2n1
HT29 colon
  TGI: > 10 µM and 1.84 µM
OVCAR-8 ovarian
  GI50: 1.77 µM and 5.99 µM
  TGI: > 10 µM and 21.1 µM
SR leukemia
  TGI: > 2.53 µM and 15.7 µM
BT-549 breast
  GI50: 0.832 µM and 3.06 µM
  TGI: > 2.46 µM and 14.2 µM
K-562 leukemia
  TGI: > 10 µM and 56.6 µM
SK-MEL-5 melanoma
  GI50: 3.82 µM
  TGI: > 2.15 µM and 17.5 µM
HOP-92 NSCLC
  GI50: 0.0119 µM and < 0.01 µM
  TGI: 0.672 µM and 0.2 µM
SK-OV-3 ovarian
  GI50: 0.95 µM and 6.12 µM
  TGI: > 4.91 µM and 22.2 µM
OVCAR-5 ovarian
  GI50: 0.225 µM and 0.455 µM
  TGI: > 2.77 µM and 15.5 µM
NCI-H522 lung
  GI50: 1.19 µM and 4 µM
  TGI: > 2.54 µM and 20.9 µM
MCF7 breast
  GI50: 0.0445 µM and 0.0305 µM
  TGI: > 2.69 µM and 15.2 µM
NCI-H460 lung
  GI50: 0.184 µM and 0.288 µM
  TGI: > 3.07 µM and 14.3 µM
SN12C renal
  GI50: 0.877 µM and 3.55 µM
  TGI: > 6.62 µM and 18.3 µM
SNB-75 CNS
  GI50: 0.138 µM and 1.24 µM
ACHN renal
  GI50: 0.849 µM and 3.36 µM
  TGI: > 3.47 µM and 26.1 µM
RXF 393 renal
  GI50: 0.396 µM and 1.44 µM
  TGI: 1.26 µM and 7.11 µM
M14 melanoma
  GI50: 0.624 µM and 2.5 µM
  TGI: > 2.85 µM and 20.5 µM
MALME-3M melanoma
  GI50: 11.7 µM
  TGI: > 4.48 µM and 29.4 µM
A498 renal
  GI50: 0.194 µM and 0.927 µM
  TGI: 0.896 µM and 3.99 µM
SK-MEL-2 melanoma
  GI50: 0.631 µM and 2.64 µM
  TGI: > 2.29 µM and 18.8 µM
OVCAR-3 ovarian
  GI50: 8.73 µM
  TGI: > 3.4 µM and 22.3 µM
SK-MEL-28 melanoma
  GI50: 11.8 µM
  TGI: > 3.92 µM and 25.7 µM
SNB-19 CNS
  GI50: 12.3 µM
  TGI: > 10 µM and 37.3 µM
UO-31 renal
  GI50: 0.458 µM and 2.78 µM
  TGI: > 4.38 µM and 16 µM
OVCAR-4 ovarian
  GI50: 1.34 µM and 3.2 µM
  TGI: > 3.38 µM and 26.7 µM
KM12 colon
  GI50: 0.0533 µM and 0.125 µM
  TGI: 0.467 µM and 0.817 µM
A549 NSCLC
  GI50: 0.259 µM and 0.384 µM
  TGI: > 10 µM and 22.9 µM
SF-539 CNS
  GI50: 0.82 µM and 2.47 µM
  TGI: > 2.45 µM and 16.3 µM
MOLT-4 leukemia
  GI50: 7.88 µM
  TGI: > 3.39 µM and 58.7 µM
MDA-MB-231 breast
  GI50: 0.786 µM and 3.11 µM
  TGI: > 10 µM and 15.1 µM
